What follows are molecules tested against kappa opioid receptor (KOR) (Homo sapiens, UniProt P41145) (assay: GTPγS assay, antagonism of U69, […], concentration-response).
Assay type: biochemical

Chain of kappa opioid receptor (KOR) (P41145 whole entry): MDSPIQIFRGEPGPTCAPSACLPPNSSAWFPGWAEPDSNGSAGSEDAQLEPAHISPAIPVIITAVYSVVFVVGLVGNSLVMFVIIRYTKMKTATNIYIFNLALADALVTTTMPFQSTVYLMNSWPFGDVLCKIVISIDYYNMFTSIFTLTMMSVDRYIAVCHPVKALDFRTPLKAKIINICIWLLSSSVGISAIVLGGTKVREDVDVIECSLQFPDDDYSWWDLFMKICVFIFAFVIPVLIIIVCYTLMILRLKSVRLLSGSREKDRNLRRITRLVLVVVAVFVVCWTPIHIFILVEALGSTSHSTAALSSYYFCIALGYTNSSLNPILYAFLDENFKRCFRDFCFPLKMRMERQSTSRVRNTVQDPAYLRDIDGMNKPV

Row | SMILES | IC50 [nM]
1 | COc1ccc(N2CCN(CCCNC(=O)CN3C(=O)C4CCCCN4c4cc(C)cnc43)CC2)cc1 (racemic) [compound 28, N-(3-(4-(4-Methoxyphenyl)piperazin-1-yl)propyl)-2-(2-methyl-6-oxo-6,6a,7,8,9,10-hexahydro-5H-dipyrido[1,2-a:2′,3′-e]pyrazin-5-yl)acetamide] | 906
2 | COc1ccc(N2CCN(CCCNC(=O)CN3C(=O)[C@@H]4CCCN4c4c(C)ccnc43)CC2)cc1 [compound 26, (S)-N-(3-(4-(4-Methoxyphenyl)piperazin-1-yl)propyl)-2-(1-methyl-6-oxo-6a,7,8,9-tetrahydropyrido[2,3-e]pyrrolo[1,2-a]pyrazin-5(6H)-yl)acetamide] | 2820
3 | COc1ccc(N2CCN(CCCNC(=O)CN3C(=O)[C@@H]4CCCN4c4cc(C)cnc43)CC2)cc1 [compound 27, (S)-N-(3-(4-(4-Methoxyphenyl)piperazin-1-yl)propyl)-2-(2-methyl-6-oxo-6a,7,8,9-tetrahydropyrido[2,3-e]pyrrolo[1,2-a]pyrazin-5(6H)-yl)acetamide] | 2620
4 | COc1ccc(N2CCN(CCCNC(=O)CN3C(=O)[C@H](CC(C)C)Nc4cc(C)cnc43)CC2)cc1 [compound 29, (S)-2-(2-Isobutyl-7-methyl-3-oxo-2,3-dihydropyrido[2,3-b]-pyrazin-4(1H)-yl)-N-(3-(4-(4-methoxyphenyl)piperazin-1-yl)propyl)-acetamide] | 433

Reference: paper PMC5278949 (The Journal of organic chemistry, 2016)
